Measured values taken from patent US20050014849A1, “Antifungal phenylethylene” (priority 2001, published 2005).
≈ marks a conversion by molar mass, not a printed value.

Legend:
[1] = test system: R. nigracans (ASU culture collection); experiment: Broth macrodilution MIC/MFC, filamentous fungi; assay type: cell-based, Rhizopus nigracans
Experimental: Susceptibility testing of filamentous fungi was also conducted. Broth macrodilution susceptibility testing of P. lilacinus, Rhizopus spp. and Aspergillus spp. was performed in accordance with a proposed standardized procedure with slight modification. To induce conidium and sporangiospore formation, fungi were grown on PDA slants at 35° C. for 6 days (P. lilacinus, Rhizopus spp., all Aspergillus species except A. nidulans) or 3 days (A. nidulans). Fungal slants were covered with sterile 0.85% NaCl (P. lilacinus, Rhizopus spp., all Aspergillus species except A. nidulans) or 0.05% Tween 80 (A. nidulans), and suspensions were made by gently probing the colonies with the tip of a sterile Pasteur pipette. The resulting mixture of hyphal fragments and conidia or sporangiospores was withdrawn and transferred to a sterile clear microcentrifuge tube, and heavy particles were allowed to settle for 10 min. […] Susceptibility to TMPN was then determined by broth macrodilution as described above for yeast isolates. […]
(§1) Minimum fungicidal concentrations (MFCs) were determined by subculturing 0.1 ml from each tube with no visible growth in the MIC broth macrodilution series onto the appropriate drug-free plates (see Fungal Strains section above).

C. glabrata ATCC 90030 = experiment: Broth macrodilution MIC/MFC; assay type: cell-based, Candida glabrata
Experimental: (§2) TMPN was screened against yeasts by the broth macrodilution assay according to the NCCLS [7]. Yeasts were suspended and diluted as recommended to yield final inocula ranging from 0.5-2.5×10^3 cfu/ml. Tests were performed in sterile 12 by 75 mm plastic tubes containing two-fold dilutions of TMPN in 0.165 M morpholinepropanesulfonic acid buffered RPMI 1640 medium (pH 7.0). One tube was again left drug free (but contained an equivalent volume of DMSO) for a turbidity control. Tubes were incubated without agitation at the appropriate temperature (see Fungal Strains section above). MICs were determined after 72 h for Cryptococcus and after 48 h for other yeast genera. The MIC was defined as the lowest concentration of TMPN that inhibited all visible growth of the test organism (optically clear).
as §1

C. glabrata (8) = experiment: Broth macrodilution MIC/MFC; assay type: cell-based, Candida glabrata
Experimental: as §2, §1

C. glabrata ATCC 2001 = experiment: Broth macrodilution MIC/MFC; assay type: cell-based, Candida glabrata
Experimental: as §2, §1

T. inkin (ATCC 18020) = experiment: Frequency of occurrence of spontaneous mutants; assay type: cell-based, Trichosporon inkin; settings: four times the broth macrodilution MIC
Experimental: Determination of the frequency of occurrence of spontaneous mutants was performed as previously described. Overnight cultures of C neoformans (ATCC 90112), C. albicans (ATCC 90028) and Trichosporon inkin (ATCC 18020) were diluted to an OD530 nm=0.3. 0.1 ml of each preparation was spread onto SDA plates containing four or eight times the broth macrodilution MIC of TMPN. The starting inoculum for each organism was also diluted and plated onto drug-free SDA plates for determination of cfu/ml. After a 48 h incubation at the appropriate temperature (see Fungal Strains section above), the number of colonies on drug-supplemented SDA was counted. The frequency of occurrence of spontaneous mutants was calculated by dividing the number of colonies on drug-containing plates by the number of colonies in the inoculum. When no colonies were visualized on drug-containing plates, the calculation was (<) 1 colony divided by the number of colonies in the inoculum.

C. albidus ATCC 66030 = experiment: Broth macrodilution MIC/MFC; assay type: cell-based, Cryptococcus albidus
Experimental: as §2, §1

C. albidus ATCC 40666 = experiment: Broth macrodilution MIC/MFC; assay type: cell-based, Cryptococcus albidus
Experimental: as §2, §1

C. albidus ATCC 34140 = experiment: Broth macrodilution MIC/MFC; assay type: cell-based, Cryptococcus albidus
Experimental: as §2, §1

T. ovoides ATCC 90040 = experiment: Broth macrodilution MIC/MFC; assay type: cell-based, Trichosporon ovoides
Experimental: as §2, §1

[2] = test system: Epidermophyton floccosum ATCC 52066; experiment: Broth macrodilution MIC/MFC; assay type: cell-based
CNS SF-295 = experiment: Sulforhodamine B cancer cell growth inhibition; assay type: cell-based; settings: Homo sapiens, 48 h, read-out: GI50 (inhibition of 50% of cell growth)
Experimental: (§3) An investigation TMPN's in vitro antineoplastic activity was also conducted. This investigation included an analysis of both cell growth, and of the effects of TMPN upon tubulin. Inhibition of cancer cell growth was assessed using the Sulforhodamine B assay as previously described. Briefly, cells in 5% fetal calf serum/RPMI-1640 were inoculated into 96 well plates, incubated 24 h and 10-fold dilutions of TMPN added. After a 48 h incubation, plates were fixed with trichloroacetic acid, washed, stained with Sulforhodamine B and read with an automated microtiter plate reader.

Prostate DU-145 = experiment: Sulforhodamine B cancer cell growth inhibition; assay type: cell-based; settings: Homo sapiens, 48 h, read-out: GI50 (inhibition of 50% of cell growth)
Experimental: as §3

Pancreas BXPC-3 = experiment: Sulforhodamine B cancer cell growth inhibition; assay type: cell-based; settings: Homo sapiens, 48 h, read-out: GI50 (inhibition of 50% of cell growth)
Experimental: as §3

Colon KM20L2 = experiment: Sulforhodamine B cancer cell growth inhibition; assay type: cell-based; settings: Homo sapiens, KM-20L2, 48 h, read-out: GI50 (inhibition of 50% of cell growth)
Experimental: as §3

Ovarian OVCAR-3 = experiment: Sulforhodamine B cancer cell growth inhibition; assay type: cell-based; settings: Homo sapiens, 48 h, read-out: GI50 (inhibition of 50% of cell growth)
Experimental: as §3

Lung-NSC NCI-H460 = experiment: Sulforhodamine B cancer cell growth inhibition; assay type: cell-based; settings: Homo sapiens, 48 h, read-out: GI50 (inhibition of 50% of cell growth)
Experimental: as §3

[3] = test system: Paecilomyces lilacinus (1); experiment: Broth macrodilution MIC/MFC, filamentous fungi; assay type: cell-based
Experimental: (§4) Susceptibility testing of filamentous fungi was also conducted. Broth macrodilution susceptibility testing of P. lilacinus, Rhizopus spp. and Aspergillus spp. was performed in accordance with a proposed standardized procedure with slight modification. To induce conidium and sporangiospore formation, fungi were grown on PDA slants at 35° C. for 6 days (P. lilacinus, Rhizopus spp., all Aspergillus species except A. nidulans) or 3 days (A. nidulans). Fungal slants were covered with sterile 0.85% NaCl (P. lilacinus, Rhizopus spp., all Aspergillus species except A. nidulans) or 0.05% Tween 80 (A. nidulans), and suspensions were made by gently probing the colonies with the tip of a sterile Pasteur pipette. The resulting mixture of hyphal fragments and conidia or sporangiospores was withdrawn and transferred to a sterile clear microcentrifuge tube, and heavy particles were allowed to settle for 10 min. The upper homogenous suspension was transferred to a sterile microcentrifuge tube, vortexed for 15 s, adjusted spectrophotometrically, and diluted in sterile 0.165 M MOPS-buffered RPMI medium, pH 7.0, to yield final inocula ranging from 0.5-2.5×10^3 cfu/ml. Susceptibility to TMPN was then determined by broth macrodilution as described above for yeast isolates. MICs were read after 48 h The MIC was defined as the lowest concentration of TMPN that inhibited all visible growth of the test organism (optically clear).
as §1

[4] = test system: Rhizopus oligosporus ATCC 22959; experiment: Broth macrodilution MIC/MFC, filamentous fungi; assay type: cell-based
Experimental: as §4, §1

SMILES: COc1cc(C=C[N+](=O)[O-])cc(OC)c1OC [TMPN, 1-(3′,4′,5′-trimethoxyphenyl)-2-nitro-ethylene]
- MFC Range [1]: >64 µg/mL
- MIC Range [1]: 32 µg/mL (≈ 134 µM)
- MFC Range (C. glabrata ATCC 90030): 16 µg/mL (≈ 66.9 µM)
- MIC Range (C. glabrata ATCC 90030): 4 µg/mL (≈ 16.7 µM)
- MIC Range (C. glabrata (8)): 8 to 32 µg/mL
- MFC Range (C. glabrata ATCC 2001): 16 µg/mL (≈ 66.9 µM)
- MIC Range (C. glabrata ATCC 2001): 8 µg/mL (≈ 33.4 µM)
- frequency of occurrence of single-step resistant mutants (T. inkin (ATCC 18020)): ≤ 10^−6
- MFC Range (C. albidus ATCC 66030): 16 µg/mL (≈ 66.9 µM)
- MIC Range (C. albidus ATCC 66030): 8 µg/mL (≈ 33.4 µM)
- MFC Range (C. albidus ATCC 40666): 32 µg/mL (≈ 134 µM)
- MIC Range (C. albidus ATCC 40666): 8 µg/mL (≈ 33.4 µM)
- MFC Range (C. albidus ATCC 34140): 32 µg/mL (≈ 134 µM)
- MIC Range (C. albidus ATCC 34140): 32 µg/mL (≈ 134 µM)
- MFC Range (T. ovoides ATCC 90040): 32 µg/mL (≈ 134 µM)
- MIC Range (T. ovoides ATCC 90040): 16 µg/mL (≈ 66.9 µM)
- MIC Range [2]: 2 µg/mL (≈ 8.36 µM)
- GI50 (CNS SF-295): 2 µg/mL (≈ 8.36 µM)
- GI50 (Prostate DU-145): 1.1 µg/mL (≈ 4.6 µM)
- GI50 (Pancreas BXPC-3): 1.6 µg/mL (≈ 6.69 µM)
- GI50 (Colon KM20L2): 1.4 µg/mL (≈ 5.85 µM)
- GI50 (Ovarian OVCAR-3): 1.8 µg/mL (≈ 7.52 µM)
- GI50 (Lung-NSC NCI-H460): 1.4 µg/mL (≈ 5.85 µM)
- MFC Range [3]: 64 µg/mL (≈ 268 µM)
- MIC Range [3]: 32 µg/mL (≈ 134 µM)
- MFC Range [4]: >64 µg/mL
- MIC Range [4]: 8 µg/mL (≈ 33.4 µM)
